Patent US4931457A, “Naphthylamino-and naphthyloxy-pyridinamine comounds useful as topical antiinflammatory agents for the treatment of skin disorders” (Hoechst-Roussel Pharmaceuticals Inc., priority 1989, dated 1990)
Counter-ions that a name gives are not always drawn. Like-named read-outs stand apart in the source and are kept apart here.

Legend:
porcine pancreatic PLA2 = porcine pancreatic PLA2 (Sus scrofa, UniProt P00592); assay: biochemical
Experimental: The ability of a compound to modulate PLA2 activity (cleavage of ^14 C-dipalmitoyl phosphotidylcholine at the 2-position to ^14 C-palmitic acid) was quantitated in this assay. The reaction mixture contained Tris buffer (25 mM), pH 8.0, calcium chloride (2.0 mM), bovine serum albumin (0.5 mg), dipalmitoyl phosphotidylcholine (8×10^-5M), (^14 C-palmitoyl)dipalmitoyl phosphotidylcholine (6×10^3cpm), porcine pancreatic PLA2 (3.2 units) and the test compound. The reaction was run at 37° C. in a shaking incubator. The reaction was quenched and an internal standard was added in order to determine sample recovery. The samples were loaded onto C18 columns, eluted with ethanol, and the radioactivity was then measured. […] See Feyen, J. H. M., et al., Journal of Chromatography 259 (1983), pp. 338-340.

[1] = tested on: mouse ear edema induced by topical application of arachidonic acid; assay: Arachidonic Acid-Induced Ear Edema (AAEE); assay type: in vivo, Female Swiss Webster mice; conditions: for AAEE, ear edema: 1 mg (1.0 mg/ear), arachidonic acid 4 mg/ear
Experimental: The purpose of this assay was to determine the ability of a topically-applied compound to prevent mouse ear edema induced by topical application of arachidonic acid. Female Swiss Webster mice topically received vehicle or test compound (1.0 mg/ear) on both ears (10 μl on outer and inner ears). After 30 minutes, the right ear of all groups received arachidonic acid (4 mg/ear) and the left ear received vehicle alone. After an additional 1 hour, the mice were sacrificed and an ear punch (4 mm) was taken from each ear. The difference in right and left ear punch weights for each animal was determined to assess activity. […] See Young, J. M. et al., Invest. Dermatol., 80, (1983), pp 48-52.

[2] = tested on: naja naja (snake venom) phospholipase A2 -induced paw edema; assay: Phospholipase A2-induced Paw Edema (PIPE); assay type: in vivo, male Wistar rats; conditions: 0.1 M; injected with PLA2 (3 units/paw) in subplantar region of rat left hindpaw; two hours
Experimental: The ability of compounds to prevent naja naja (snake venom) phospholipase A2 -induced paw edema in male Wistar rats (100-125 g) was measured. PLA2 (3 units/paw) alone or with 0.1M of the test compound was injected in the subplantar region of the rat left hindpaw. Immediately subsequent to the injection and at two hours post administration the paw was immersed in a mercury bath, and paw displacement was measured on a recorder via a transducer. […] See Giessler, A. J. et al., Agents and Actions, Vol. 10, Trends in Inflammation Research (1981), p. 195.

[3] = tested on: ear edema induced by topical application of TPA (phorbol 12-myristate acetate); assay: TPA-Induced Ear Edema (TPAEE); assay type: in vivo, Female Swiss Webster mice; conditions: for TPAEE, ear edema: 10 μg (10 μg/ear), TPA 10 μg/ear, five hours
Experimental: The purpose of this assay was to determine the ability of a topically-applied compound to prevent ear edema induced by topical application of TPA (phorbol 12-myristate acetate). Female Swiss Webster mice topically received TPA (10 μg/ear) on the right ear and vehicle on the left ear. The test compound (10 μg/ear) was applied to both ears. After five hours, the animals were sacrificed and an ear punch (4 mm) was taken from each ear. The difference in right and left ear punch weights for each animal was determined to assess activity. […] See Young, J. M. et al., J. Invest. Dermatol., 80 (1983), pp. 48-52.

[4] = tested on: epidermal DNA synthesis (proliferation of skin); assay: Epidermal DNA Synthesis (in vivo DNA); set-up: species or system HRS/J hairless mice; conditions: Standard; topical, 24 hours, 3H-thymidine incorporation
Experimental: The influence of compounds on the proliferation of skin was assessed by determining inhibition or stimulation of DNA synthesis. HRS/J hairless mice received topical application of a compound or vehicle alone on the dorsal aspect. After 24 hours, ^3 H-thymidine (25 μCi) was administered by intraperitoneal injection. After an additional hour, animals were sacrificed and the dorsal skin was removed. The epidermal layer was peeled from the dermis by heat separation. Unincorporated ^3 H-thymidine was removed by washing successively with trichloroacetic acid and ethanol. Samples were centrifuged at 2,000 rpm and supernatants discarded. The epidermal sheets were then extracted with warm trichloroacetic acid and the supernatants analyzed for ^3 H-thymidine incorporation by total DNA by a standard colorimetric assay. […] See Lowe, N. J., et at., Arch. Dermatol., 117 (1981), pp. 394-8; and Burton, K., Biochem. J. 62 (1956), pp. 315-22.

[5] = tested on: cultured human epidermal keratinocytes; assay: Cultured Human Keratinocyte DNA Synthesis (in vitro DNA); assay type: cell-based; conditions: Standard, 24 hours incubation, 3H-thymidine incorporation
Experimental: The effect of a compound on the proliferation of cultured human epidermal keratinocytes was measured. After incubation with a test compound for 24 hours, the cultures were pulse-labelled for three hours with 5 μCi of ^3 H-thymidine. The cultures were extracted for DNA successively with trichloroacetic acid and ethanol, and thereafter dissolved with NaOH. The radioactive incorporation of ^3 H-thymidine into DNA was determined.

[6] = 0.01 M, in vitro, pH 8.0, 37° C., read-out: PLA2, difference vs. control
[7] = pH 8, read-out: PLA2, difference vs. control

porcine pancreatic PLA2, sequence (P00592 23-146): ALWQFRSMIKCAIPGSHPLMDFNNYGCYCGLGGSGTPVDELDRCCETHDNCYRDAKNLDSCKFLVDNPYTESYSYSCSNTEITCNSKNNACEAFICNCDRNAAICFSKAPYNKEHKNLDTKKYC

In the case of `Nc1ccncc1Oc1cccc2ccccc12` [3-(1-Naphthyloxy)-4-pyridinamine], the inhibition at 10000 µM (porcine pancreatic PLA2; [6]) is reported as 54%, the “AAEE, ear edema” value [1] is reported as -66% and the “PIPE, difference in edema vs. control” value [2] is reported as -60%.

`Cl.Nc1cnccc1Oc1cccc2ccccc12` [4-(1-Naphthyloxy)-3-pyridinamine hydrochloride] was tested, and the “TPAEE, ear edema” value [3] was -40%.

In the case of `O=[N+]([O-])c1cc[n+]([O-])cc1Nc1cccc2ccccc12` [N-(1-Naphthyl)-4-nitro-3-pyridinamine-N-oxide], the “TPAEE, ear edema” value [3] is reported as -40%.

With `O=[N+]([O-])c1cc[n+]([O-])cc1Oc1cccc2ccccc12` [3-(1-Naphthyloxy)-4-nitropyridine-N-oxide] the “AAEE, ear edema” value [1] was -27%.

With `Nc1ccncc1Oc1ccc(Cl)c2ccccc12` [3-(4-Chloro-1-naphthyloxy)-4-pyridinamine oxalate] the inhibition at 10000 µM (porcine pancreatic PLA2; [7]) was 110%.

`COc1ccc(Oc2cnccc2N)c2ccccc12` [3-(4-Methoxy-1-naphthyloxy)-4-pyridinamine] was tested, and the “PIPE, difference in edema vs. control” value [2] was -40%.

With `O=[N+]([O-])c1cnccc1Oc1cccc2ccccc12` [4-(1-Naphthyloxy)-3-nitropyridine] the “TPAEE, ear edema” value [3] was -72%.

In the case of `COc1ccc2c(c1)c(CC(=O)O)c(C)n2C(=O)c1ccc(Cl)cc1` [indomethacin], the ED50 [4] is reported as 1.75 mg/animal, the IC50 [5] is reported as 38 µM and the ED50 ([1]; Standard, arachidonic acid ear edema, mouse) is reported as 1.5 mg/ear.

For `O=[N+]([O-])c1cc[n+]([O-])cc1Oc1cccc2c1CCCC2` [4-Nitro-3-(5,6,7,8-tetrahydro-1-naphthyloxy)pyridine-N-oxide], the inhibition at 10000 µM (porcine pancreatic PLA2; [6]) was 38%.

`C[C@]12CCC(=O)C=C1CC[C@@H]1[C@@H]2[C@@H](O)C[C@@]2(C)[C@H]1CC[C@]2(O)C(=O)CO` [hydrocortisone, reference compound] gave an ED50 ([3]; Standard, TPA ear edema, mouse) of 47 μg/ear.

In the case of `CCN(CC)CCCC(C)Nc1c2ccc(Cl)cc2nc2ccc(OC)cc12` (stereo not shown) [quinacrine, reference compound], the IC50 (porcine pancreatic PLA2) is reported as 350 µM.

For `O=[N+]([O-])c1cc[n+]([O-])cc1Oc1ccc2cc(Br)ccc2c1` [3-(6-Bromo-2-naphthyloxy)-4-nitropyridine-N-oxide], the “TPAEE, ear edema” value [3] was -43%.

For `O=[N+]([O-])c1cc[n+]([O-])cc1Oc1ccc(Cl)c2ccccc12` [3-(4-Chloro-1-naphthyloxy)-4-nitropyridine-N-oxide], the “TPAEE, ear edema” value [3] was -41%.

`Nc1ccncc1Oc1cccc2c1CCCC2` [3-(5,6,7,8-Tetrahydro-1-naphthyloxy)-4-pyridinamine hydrochloride] was tested, and the inhibition at 10000 µM (porcine pancreatic PLA2; [7]) was 110%.

`Nc1ccncc1Oc1ccc2ccccc2c1` [3-(2-Naphthyloxy)-4-pyridinamine] was tested, and the “AAEE, ear edema” value [1] was -59%.
